# Assay results as given in US20250263457A1, “Pharmaceutical Composition for Preventing and Treating Liver Disease Comprising Novel Peptide” (Pusan National University Industry-University Cooperation …, priority 2024, published 2025).
# Legend:
# human pHSCs = assay: Western blot of HSC activation/inactivation markers in human pHSCs; format: cell-based; settings: 40 ng/ml, vs control (FIG. 2C)
# Experimental: To confirm the expression of cell activation markers, human pHSCs (5× 10^5 cells/ml) were treated with peptide YJ at a concentration of 20 or 40 ng/ml, and then proteins were extracted and subjected to Western blotting. At this time, as primary antibodies, anti-α-SMA antibody (Sigma-Aldrich, A5228), anti-GAPDH antibody (Bio-rad, MCA4739), anti-GFAP antibody (Dako, z0334), and anti-TFG-β antibody (Cell Signaling Technology, 3711) were used. In addition, as secondary antibodies, Goat anti-mouse IgG F(ab′) 2 antibody (HRP conjugate) (Enzo, ADI-SAB-100-J) and Goat anti-rabbit IgG antibody (HRP conjugate) (Enzo, ADI-SAB-300-J) were used.
# CD44 = assay: Immunofluorescence of CD44ICD and α-SMA in human pHSCs; format: cell-based; settings: 40 ng/ml, immunofluorescence (FIG. 3B)
# Experimental: The cleavage of CD44 and the expression of the activation marker of pHSCs by peptide YJ treatment were confirmed through immunofluorescence. At this time, human pHSCs treated with PBS were used as a control group.
# Specifically, human pHSCs (5×10^4 cells/ml) were seeded on coverslips and then cultured overnight. The cells were treated with peptide YJ at a concentration of 40 ng/ml and further cultured for 6, 12, and 24 hours, respectively. The cells were fixed and permeabilized by treating each cell with 4% paraformaldehyde and 0.01% Triton X-100. To inhibit non-specific binding of antibodies, blocking (Dako, X9090) was performed, and then the primary antibodies were treated and reacted overnight at 4° C. At this time, the primary antibodies used were anti-CD44ICD antibody (Cosmo Bio, KAL-KO601) and α-SMA (Sigma-Aldrich, A5228). Thereafter, the cells were washed with TBS, treated with a secondary antibody, and reacted at room temperature for 30 minutes. The secondary antibody used were Alexa Fluor 488-conjugated chicken anti-mouse IgG antibody (Invitrogen, A21200) or Alexa Fluor 568-conjugated goat anti-rabbit IgG antibody (Invitrogen, A10042). The cells were washed with TBS, and then treated with 4′,6-diamidino-2-phenylinole (DAPI, VECTASHIELD, H-1200-10) to perform nuclear staining. Finally, the coverslip was fixed on a slide glass using a mounting solution and then observed with a confocal microscope DMi8-S (Leica Microsystems) or CLSM21 (Carl Zeiss Inc.).
# [1] = tested on: alcohol-related liver disease mouse model; assay: Triglyceride accumulation in liver tissue of alcohol-related liver disease mouse model; format: in vivo, C57BL/6 male mice; settings: 3.3 μg/kg i.p. every other day for three weeks
# Source text: (§1) To prepare alcohol-related liver disease mice, 8-week-old C57BL/6 male mice were fed with a Lieber DeCarli liquid diet (Dyets, 710260) containing 5% EtOH for 9 weeks, and then injected intraperitoneally with a vehicle (PBS) every other day along with feeding liquid diet for additional 3 weeks. As a control group for the EtOH diet, mice fed with a pair Lieber DeCarli liquid diet (Dyets, 710027) having the same total calories as the EtOH diet were used (FIG. 4A).
# Triglycerides in the liver tissue obtained by the method of Example 5.2 were measured using the following method.
# In addition, the accumulation of triglycerides in the liver tissue was confirmed using Oil red O staining.
# Specifically, the liver tissue extracted from the mice was embedded in OCT and frozen-stored at −80° C. The liver tissue embedded in OCT was cut into 6 μm-thick sections to produce tissue section slides and then fixed by treating 4% paraformaldehyde. The tissue section slides were washed with distilled water and treated with 100% propylene glycol ([…], Sigma-Aldrich), and triglycerides were stained with Oil Red O (Sigma-Aldrich). After staining, the section slides were washed with 60% PEG, and the nuclei were counterstained with hematoxylin. The liver tissue section slides produced as described above were observed under a microscope to confirm the accumulation of triglycerides in the liver tissue. […]
# [2] = tested on: alcohol-related liver disease mouse model; assay: Inflammatory response (CD68, F4/80 immunohistochemistry) and alcohol metabolism/apoptosis markers (Western blot) in liver tissue of mouse model; format: in vivo, C57BL/6 male mice; settings: 3.3 μg/kg i.p. every other day for three weeks, vs vehicle
# Source text: as §1
# Specifically, the liver tissue extracted from the mouse was fixed by treating 10% neutral buffered formalin, and then embedded using paraffin. The liver tissue paraffin block was cut into 4 μm-thick sections to produce tissue section slides. After deparaffinization and hydration processes of the tissue section slides, 3% hydrogen peroxide was treated to block endogenous peroxidase. Then, the section slides were treated with 10 mM sodium citrate buffer (pH 6.0) and heated for 10 minutes or treated with 0.2% pepsin to induce antigen retrieval. To inhibit non-specific binding of antibodies, blocking (Dako, X9090) was performed, and then the primary antibodies were treated and reacted overnight at 4° C. At this time, the primary antibodies used were anti-CD68 antibody (Abcam, ab125212) and anti-F4/80 antibody (Abcam, ab6640). The section slides were washed with TBST and then treated with secondary antibodies and reacted. The secondary antibodies used were EnVision+ Single Reagents (HRP, Rabbit) (Dako, K4003) and Goat anti-rat IgG-heavy and light chain antibodies (HRP conjugated) (BETHYL, A110-105P). Thereafter, the section slides were washed with TBST and treated with 3,3′-diaminobenzidine (DAB) (Dako, K3466) to develop the color. After the color development, the tissues of the section slides were dehydrated, mounted, fixed, and then observed under a microscope.
# The alcohol-related liver disease mouse model established by the method of Example 5.1 was administered vehicle (PBS) or peptide YJ (3.3 μg/kg) intraperitoneally every other day for three weeks, and then blood was collected and liver tissue was extracted to confirm the liver disease treatment effect of peptide YJ.
# The degree of inflammatory response in the liver tissue extracted from the experimental mice of Example 5.3 was confirmed in the same manner as in Example 5.3.2.
# In addition, the expression of alcohol metabolism markers and apoptosis marker proteins was confirmed through Western blot. Western blot was performed in the same manner as in Example 2. At this time, the primary antibodies used were anti-CYP2E1 antibody ([…], ab125212), anti-4HNE antibody (Abcam, ab46545), anti-cleaved caspase-3 antibody (Cell Signaling Technology, 9661s), anti-caspase-3 antibody (Cell Signaling Technology, 9662s), and anti-GADPH antibody.
# [3] = EtOH diet group, Western blot (FIG. 6F)
substance,measurement,setting,value
peptide YJ: TSG-6 fragment: core domain RSGKYKLTYAEAKA plus C-terminal extension VCEFEGGHLATYKQLEAARKIGFHVCAAGWMAK (SEQ ID NO: 9); TSG-6 mimetic (RSGKYKLTYAEAKAVCEFEGGHLATYKQLEAARKIGFHVCAAGWMAK; peptide 4),expression of GFAP (inactivation marker),human pHSCs,increased
same,expression of activation markers of pHSCs,human pHSCs,decreased
same,expression of CD44ICD in the nucleus,CD44; 12 hours,decreased
same,expression of α-SMA,CD44; 12 hours,decreased
same,expression of CD44ICD in the nucleus,CD44; 24 hours,no expression of CD44ICD in the nucleus was observed
same,expression of α-SMA,CD44; 24 hours,significantly decreased
same,amount of triglycerides in the liver tissue,"[1]; EtOH diet group, vs vehicle (FIG. 6D)",significantly reduced
same,size and number of lipid droplet in the liver tissue,[1]; H&E staining (FIG. 6E),significantly reduced
same,expression of CD68 in liver tissue,"[2]; EtOH diet group, IHC (FIG. 6E)",significantly reduced
same,expression of F4/80 in liver tissue,"[2]; EtOH diet group, IHC (FIG. 6E)",significantly reduced
same,expression of 4HNE in liver,[2]; [3],did not show a significant difference
same,expression of CYP2E1 in liver,[2]; [3],did not show a significant difference
same,expression of cleaved caspase-3 (apoptosis marker) in liver,[2]; Western blot (FIG. 6F),decreased
